Reference: PMC11901902, “Design, Synthesis, and Cytotoxicity Evaluation of Novel Indolin-2-One Based Molecules on Hepatocellular Carcinoma HepG2 Cells as Protein Kinase Inhibitors” (Molecules, 2025)

Experiments:
CDK-2 = target: T1, CDK-2 (Homo sapiens, UniProt P24941); assay: Kinase-Glo Plus luminescence kinase inhibition assay, CDK-2; assay type: biochemical; conditions: for IC50: 10 µM ATP, 30 °C, 40 min, mean ± SEM
T1 construct: purchased BPS Bioscience 41101
Protocol: (§1) The enzyme inhibition assay for the tested molecules was performed at BPS Bioscience Corporation, San Diego, CA, USA. The following materials served as the enzyme sources, Poly (Glu, Tyr) sodium salt (4:1, Glu:Tyr) (Sigma#P7244) served as the standardized substrate, and the Kinase-Glo Plus Luminescence kinase assay kit (Promega # V3772) was used. […] Glo Plus luminescence kinase assay kits. The assays were performed using Kinase-Glo Plus luminescence (Promega Corporation, Madison, WI, USA).
(§2) The tested molecules 9, 20, and indurbin were diluted to 100 µL in DMSO (10%), and 5 µL of the solution was added to a 50-µL enzyme reaction until the final concentration of DMSO was 1% in all of reactions. The enzymatic reactions were conducted at 30 °C for 40 min. The reaction mixture contained enzyme substrate and respective kinases. After the enzymatic reaction, 50 µL of enzyme-Glo Plus luminescence […] assay solution (Promega) was added to each reaction, and the plate was incubated for 5 min at room temperature. The luminescence signal was measured using a BioTek Synergy 2 microplate reader. The luminescence data were analyzed using the computer software GraphPad Prism. The difference between luminescence intensities in the absence of enzyme (Lut) and in the presence of enzyme (Luc) was defined as 100% activity (Lut − Luc). The values of enzyme activity percentages versus five concentrations of the small molecule were then plotted using a non-linear regression analysis of the sigmoidal dose–response curve. The IC50 value was determined using GraphPad Prism software. All experiments were repeated three times (Table S3).
Glo Plus luminescence kinase assay kits were used in these assays. The assay was done at Bioscience Laboratory BPS, California, USA. The assay measures kinase activity by quantitating the amount of ATP remaining in the solution following kinase reaction. The luminescent signal from the assay was correlated with the amount of ATP present and inversely correlated with kinase activity. […] All of the enzymatic reactions were conducted at 30 °C for 40 min. The reaction mixture contained 40 mM Tris, pH 7.4, 10 mM MgCl2, 0.1 mg/mL BSA, 1 mM DTT, 10 µM ATP, Kinase substrate, and VEGFR-2, EFGR, CDK-2 and CDK-4 enzymes. After the enzymatic reaction, 50 µL of Kinase-Glo Plus Luminescence kinase assay solution (Promega) was added to each reaction, and the plate was incubated for 5 min at room temperature. The luminescence signal was measured using a BioTek Synergy 2 microplate reader. Kinase activity assays were performed in triplicate for each concentration. The luminescence data were analyzed using the Graphpad Prism software.

VEGFR-2 = target: T2, VEGFR-2 (Homo sapiens, UniProt P35968); assay: Kinase-Glo Plus luminescence kinase inhibition assay, VEGFR-2; assay type: biochemical; conditions: 10 µM ATP, 30 °C, 40 min; mean ± SEM
T2 construct: purchased BPS Bioscience 40301
T2 sequence (P35968 20-1356): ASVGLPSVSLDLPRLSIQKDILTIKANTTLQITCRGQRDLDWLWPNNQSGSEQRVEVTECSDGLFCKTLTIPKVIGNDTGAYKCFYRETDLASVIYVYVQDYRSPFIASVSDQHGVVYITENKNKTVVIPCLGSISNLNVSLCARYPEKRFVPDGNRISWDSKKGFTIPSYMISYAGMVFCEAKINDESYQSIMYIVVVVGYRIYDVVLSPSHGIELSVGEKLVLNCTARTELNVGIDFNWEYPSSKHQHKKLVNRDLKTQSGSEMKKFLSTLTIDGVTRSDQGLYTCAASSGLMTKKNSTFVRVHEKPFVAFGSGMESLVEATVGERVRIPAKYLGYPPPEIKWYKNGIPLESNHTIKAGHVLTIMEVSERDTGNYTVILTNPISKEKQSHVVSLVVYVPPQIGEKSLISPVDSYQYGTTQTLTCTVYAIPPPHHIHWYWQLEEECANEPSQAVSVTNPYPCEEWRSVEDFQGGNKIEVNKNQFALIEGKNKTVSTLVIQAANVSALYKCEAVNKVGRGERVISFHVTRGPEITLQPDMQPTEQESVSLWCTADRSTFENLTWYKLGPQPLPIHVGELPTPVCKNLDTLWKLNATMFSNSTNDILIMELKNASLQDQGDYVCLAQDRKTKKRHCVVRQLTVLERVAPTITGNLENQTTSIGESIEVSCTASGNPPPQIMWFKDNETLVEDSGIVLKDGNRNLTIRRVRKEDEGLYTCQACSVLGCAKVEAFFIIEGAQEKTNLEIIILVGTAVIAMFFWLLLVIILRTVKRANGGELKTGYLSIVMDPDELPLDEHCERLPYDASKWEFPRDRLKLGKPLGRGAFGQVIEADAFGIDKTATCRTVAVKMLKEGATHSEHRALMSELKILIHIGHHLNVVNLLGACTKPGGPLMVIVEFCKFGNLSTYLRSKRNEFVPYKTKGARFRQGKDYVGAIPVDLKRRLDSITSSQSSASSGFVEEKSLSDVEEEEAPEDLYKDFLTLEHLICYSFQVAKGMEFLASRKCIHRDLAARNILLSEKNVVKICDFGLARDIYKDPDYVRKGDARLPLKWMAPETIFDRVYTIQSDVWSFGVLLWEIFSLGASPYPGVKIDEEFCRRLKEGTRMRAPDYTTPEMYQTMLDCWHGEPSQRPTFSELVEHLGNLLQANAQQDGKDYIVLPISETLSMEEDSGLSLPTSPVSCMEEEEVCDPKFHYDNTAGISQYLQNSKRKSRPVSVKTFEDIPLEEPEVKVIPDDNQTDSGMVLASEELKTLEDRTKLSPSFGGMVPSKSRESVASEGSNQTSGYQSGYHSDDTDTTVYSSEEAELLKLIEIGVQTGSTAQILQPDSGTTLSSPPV
Protocol: as §1
as §2, with “The values of enzyme activity percentages versus five concentrations of the small molecule were then plotted using a non-linear regression analysis of the sigmoidal dose–response curve.” left out, “All experiments were repeated three times (Table S3).” left out
(§3) Glo Plus luminescence kinase assay kits were used in these assays. […] The assay measures kinase activity by quantitating the amount of ATP remaining in the solution following kinase reaction. […] After the enzymatic reaction, 50 µL of Kinase-Glo Plus Luminescence kinase assay solution (Promega) was added to each reaction, and the plate was incubated for 5 min at room temperature. The luminescence signal was measured using a BioTek Synergy 2 microplate reader. […] The luminescence data were analyzed using the Graphpad Prism software.

p53 = assay: ELISA of p53 in treated HepG-2 cells; assay type: cell-based, human; conditions: for upregulation of p53 expression compared to untreated cells: HepG-2, compound at its IC50, 24 h; for Concentration of p53: HepG-2, compound at its IC50, ± S.E.M, control 48.29±3.87
Protocol: (§4) HepG2 cells were cultured in RPMI 10% + 5%FBS penicillin/streptomycin and were incubated at a humidity 5% CO2 and maintained at 37 °C. […] HepG2 cells were cultured as a monolayer in T-25 flasks and were seeded to attain 30% confluency prior to treatment. The main 100 mM stock dissolved in DMSO was diluted with the cell culture medium in order to reach the previously determined IC50 concentration of each of the three preparations. After that, HepG2 cells were collected via trypsinization and centrifuged at 10,000 rpm. The pellet was then rinsed with PBS and lysed in RIPA lysis buffer at 4 °C for 45 min, then centrifuged at 14,000 rpm for 20 min to remove the cellular debris. Lysates were then collected and stored at […] for protein determination. The levels of p53, p21, Fas-L, Bax, Bcl-2, and caspase 3/7 were assessed using the human P53 ELISA kit (Catalog No. ABIN6962151), P21 ELISA kit (Catalog No. ABIN6966175), Human Apoptosis Ligand (FAS-L), Bax ELISA kit, Human Factor-Related. Bcl-2 ELISA kit ELISA kit, and caspase3/7 ELISA kit (Elabscience Biotechnology Co., Wuhan, Hubei, China). The procedure of the used kits was done according to the manufacturer’s instructions. Briefly, equal amounts of cell lysates were loaded and then probed with specific antibodies. The samples were measured at 450 nm in ROBONEK P2000 ELISA reader. The analysis was confirmed with three different sets of extracts. All experiments were done in triplicate (Tables S6–S9).

p21 = assay: ELISA of p21 in treated HepG-2 cells; assay type: cell-based, human; conditions: HepG-2, compound at its IC50, 24 h
Protocol: as §4, with “The analysis was confirmed with three different sets of extracts. All experiments were done in triplicate (Tables S6–S9).” left out

EGFR = target: T3, EGFR (Homo sapiens, UniProt P00533); assay: Kinase-Glo Plus luminescence kinase inhibition assay, EGFR; assay type: biochemical; conditions: 10 µM ATP, 30 °C, 40 min; mean ± SEM
T3 construct: purchased BPS Bioscience 40721
T3 sequence (P00533 25-1210): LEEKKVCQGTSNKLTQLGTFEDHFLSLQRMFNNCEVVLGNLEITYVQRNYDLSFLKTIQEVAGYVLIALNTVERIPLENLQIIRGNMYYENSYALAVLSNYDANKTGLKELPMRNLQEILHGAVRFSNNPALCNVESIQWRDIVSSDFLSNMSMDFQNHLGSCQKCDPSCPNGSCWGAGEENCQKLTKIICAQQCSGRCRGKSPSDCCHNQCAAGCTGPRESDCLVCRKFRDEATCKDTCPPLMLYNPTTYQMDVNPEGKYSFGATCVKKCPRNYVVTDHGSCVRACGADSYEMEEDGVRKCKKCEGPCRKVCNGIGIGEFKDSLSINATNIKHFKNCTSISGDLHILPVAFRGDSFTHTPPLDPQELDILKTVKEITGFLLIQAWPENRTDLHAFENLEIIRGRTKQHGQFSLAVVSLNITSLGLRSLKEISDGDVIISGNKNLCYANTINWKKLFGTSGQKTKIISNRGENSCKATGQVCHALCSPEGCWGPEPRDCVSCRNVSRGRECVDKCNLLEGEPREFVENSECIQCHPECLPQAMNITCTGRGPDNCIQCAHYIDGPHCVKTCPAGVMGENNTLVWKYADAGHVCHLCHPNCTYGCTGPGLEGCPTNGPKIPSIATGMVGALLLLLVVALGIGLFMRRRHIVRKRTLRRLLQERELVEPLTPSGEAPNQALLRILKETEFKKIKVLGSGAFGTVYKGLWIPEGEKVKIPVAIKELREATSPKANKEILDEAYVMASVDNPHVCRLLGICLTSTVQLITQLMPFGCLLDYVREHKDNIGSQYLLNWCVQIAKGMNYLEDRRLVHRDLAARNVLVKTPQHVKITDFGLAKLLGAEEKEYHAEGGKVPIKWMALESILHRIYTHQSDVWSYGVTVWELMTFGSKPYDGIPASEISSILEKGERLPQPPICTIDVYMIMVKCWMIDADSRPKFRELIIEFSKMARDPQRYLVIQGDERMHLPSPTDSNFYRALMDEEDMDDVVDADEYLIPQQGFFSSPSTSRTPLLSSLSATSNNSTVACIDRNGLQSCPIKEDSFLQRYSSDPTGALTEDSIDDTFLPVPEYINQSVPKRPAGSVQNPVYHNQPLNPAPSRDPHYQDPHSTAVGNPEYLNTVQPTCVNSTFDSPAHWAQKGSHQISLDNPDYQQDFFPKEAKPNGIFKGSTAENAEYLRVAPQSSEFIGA
Protocol: as §1
as §2, with “The values of enzyme activity percentages versus five concentrations of the small molecule were then plotted using a non-linear regression analysis of the sigmoidal dose–response curve.” left out, “All experiments were repeated three times (Table S3).” left out
as §3

HepG2 cells = assay: Annexin-V-FITC/PI apoptosis assay; assay type: cell-based, human; conditions: HepG2, compound at its IC50, 24 h
Protocol: Then, the cells were washed with PBS and detached by trypsin. The detached cells were collected into a 15-mL centrifuged tube, washed with ice-cold PBS twice, and centrifuged at 1200 rpm for 5 min. A volume of 0.1 mL binding buffer was added to the treated HepG-2 cells, followed by adding 5 μL of annexin V-FITC and 5 μL of 50 μg/mL PI staining reagents. After mixing and reacting at 25 °C for 15 min in the dark, the apoptotic cell percentages were analyzed by a flow cytometer [FACS Calibur flow cytometer (BD Biosciences)] (Table S5).

SMILES	IC50 (CDK-2) [nM]	IC50 (VEGFR-2) [nM]	upregulation of p53 expression compared to untreated cells (p53) [fold]	Concentration of p53 (p53) [pg/mL]	upregulation of p21 expression compared to untreated cells (p21) [fold]	IC50 (EGFR) [nM]	Apoptosis Early (HepG2 cells) [%]	Apoptosis Late (HepG2 cells) [%]	Apoptosis Total (HepG2 cells) [%]	Necrosis (HepG2 cells) [%]	increase of cell population at late apoptosis compared with untreated control (HepG2 cells)	increase of cells in early apoptotic stage compared with untreated control (HepG2 cells)	fold higher inhibitory effect than indirubin against CDK-2 (CDK-2; relative to indirubin) [fold]
O=C1Nc2ccc(Cl)cc2C1=Nc1ccc(-c2nc3ccccc3c(=O)[nH]2)cc1 [Compound 20, 2-[4-(5-Chloro-2-oxo-1,2-dihydro-indol-3-ylideneamino)-phenyl]-3H-quinazolin-4-one]	225 ± 12.6	14.3 ± 2.7	2.65	127.43 ± 9.43	3.9	32.7 ± 1.61	4.91	6.75	11.66	1.91	~21 fold	around 6 fold	
O=C1Nc2ccc(Cl)cc2C1=Nc1ccc2nc[nH]c(=O)c2c1 [Compound 9, 6-(5-Chloro-2-oxo-1,2-dihydro-indol-3-ylideneamino)-3H-quinazolin-4-one]	9.39 ± 0.51	56.7 ± 4.3	6.7	325.11 ± 29.55	4.52	87.5 ± 6.71	5.05	3.72	8.77	2.69	around 11 fold	around 6 fold	4.8
